The results in this text go back to US10221172B2, “Benzothiazole and benzisothiazole-substituted compounds as mGluR4 allosteric potentiators, compositions, and methods of treating neurological dysfunction” (Vanderbilt University, priority 2015, dated 2019).

For orientation: EC50 means the midpoint of the concentration-response curve.

For the assay, the target named is human mGluR4 (Homo sapiens (Human), UniProt Q14833). Put plainly: mGluR4 potentiation assay, CHO cells transfected with human mGluR4, Ca2+-sensitive dye, EC20 agonist. The assay is classed as cell-based. The settings on record: potentiation of mGluR4. The method, then: The disclosed compounds and compositions can be evaluated for their ability to act as a potentiator of metabotropic glutamate receptor activity, in particular mGluR4 activity, by any suitable known methodology known in the art. For example, Chinese Hamster Ovary (CHO) cells transfected with human mGluR4 or HEK cells co-transfected with rat mGluR4 and the G-protein regulated Inwardly Rectifying Potassium channel (GIRK) were plated in clear bottom assay plates for assay in a Hamamatsu FDSS Fluorometric Plate Reader. The cells were loaded with either a Ca2+-sensitive fluorescent dye or the thallium responsive dye and the plates were washed and placed into a suitable kinetic plate reader. For human mGluR4 assays, a fluorescence baseline was established for 3-5 seconds, the disclosed compounds were then added to the cells, and the response in cells was measured. Approximately two and a half minutes later, a concentration of mGluR4 orthosteric agonist (e.g. glutamate or L-AP4) eliciting approximately 20% (EC20) of the maximal agonist response was added to the cells, and the response was measured. Two minutes later, a concentration of mGluR4 agonist (e.g. glutamate or L-AP4) eliciting 80% (EC80) of the maximal agonist response was added to the cells, and the response was measured. For rat mGluR4/GIRK experiments, a baseline was established for approximately five seconds, disclosed compounds were added, and either an EC20 or EC80 concentration of agonist was added approximately two and one half minutes later. Potentiation of the agonist response of mGluR4 by the disclosed compounds was observed as an increase in response to the EC20 concentration of agonist in the presence of compound compared to the response to agonist in the absence of compound. Similarly, antagonism of the agonist response of mGluR4 by the disclosed compounds was observed as a decrease in response to the EC80 concentration of agonist in the presence of compound compared to the response to agonist in the absence of compound.
The above described assay operated in two modes. In the first mode, a range of concentrations of the disclosed compounds are added to cells, followed by a single fixed concentration of agonist. If the compound acts as a potentiatior, an EC50 value for potentiation and a maximum extent of potentiation by the compound at this concentration of agonist is determined by non-linear curve fitting. If the compound acts as a noncompetitive antagonist, an IC50 value is determined by non-linear curve fitting. In the second mode, several fixed concentrations of the disclosed compounds are added to various wells on a plate, followed by a range in concentrations of agonist for each concentration of disclosed compound. The EC50 values for the agonist at each concentration of compound are determined by non-linear curve fitting. A decrease in the EC50 value of the agonist with increasing concentrations of the sample compound (a leftward shift of the agonist concentration-response curve) is an indication of the degree of mGluR4 potentiation at a given concentration of the sample compound. A decrease in the maximal response of the agonist with increasing concentrations of the sample compounds, with or without a rightward shift in agonist potency, is an indication of the degree of noncompetitive antagonism at mGluR4. The second mode also indicates whether the sample compounds also affect the maximum response to mGluR4 to agonists.

Setting [1] is: main compound table, species not given.
Where [2] appears, read: summary list repeated at the end of the table, species not stated.

Molecules are shown by their SMILES. A value given as a limit tells only on which side of the number the result lay.

Chain of human mGluR4 (Q14833 33-912): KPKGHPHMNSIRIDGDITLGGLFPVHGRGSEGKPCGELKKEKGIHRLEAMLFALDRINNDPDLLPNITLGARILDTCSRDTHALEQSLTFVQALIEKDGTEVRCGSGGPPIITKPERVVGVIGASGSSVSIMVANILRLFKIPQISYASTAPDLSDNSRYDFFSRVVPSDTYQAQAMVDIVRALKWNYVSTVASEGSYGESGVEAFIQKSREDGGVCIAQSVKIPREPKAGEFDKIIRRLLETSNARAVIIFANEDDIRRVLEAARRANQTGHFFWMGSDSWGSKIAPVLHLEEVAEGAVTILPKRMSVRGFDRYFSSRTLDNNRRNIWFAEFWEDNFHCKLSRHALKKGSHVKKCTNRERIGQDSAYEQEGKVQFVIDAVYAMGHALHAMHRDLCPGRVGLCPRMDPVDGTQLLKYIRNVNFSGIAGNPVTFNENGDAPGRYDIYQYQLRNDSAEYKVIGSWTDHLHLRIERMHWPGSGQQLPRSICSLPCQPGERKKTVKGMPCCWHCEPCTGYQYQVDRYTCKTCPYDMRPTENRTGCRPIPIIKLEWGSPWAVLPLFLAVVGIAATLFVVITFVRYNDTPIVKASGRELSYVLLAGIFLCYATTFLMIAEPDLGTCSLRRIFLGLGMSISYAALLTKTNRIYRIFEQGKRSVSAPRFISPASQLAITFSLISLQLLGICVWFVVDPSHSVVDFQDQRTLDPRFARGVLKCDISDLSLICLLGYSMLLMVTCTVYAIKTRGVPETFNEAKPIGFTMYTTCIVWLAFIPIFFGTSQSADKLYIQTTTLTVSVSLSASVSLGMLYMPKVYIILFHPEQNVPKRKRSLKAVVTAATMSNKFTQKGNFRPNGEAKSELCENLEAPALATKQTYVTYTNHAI

With `Cc1nsc2ccc(Nc3n[nH]c4cccnc34)cc12` [Example 1, 3-methyl-N-(1H-pyrazolo[4,3-b]pyridin-3-yl)benzo[d]isothiazol-5-amine], the EC50 reads like this: under setting [1], 187 nM; under setting [2], 187 nM.

Regarding `CC(C)(C)Cc1nsc2cc(Nc3n[nH]c4cccnc34)ccc12` [Example 2, 3-neopentyl-N-(1H-pyrazolo[4,3-b]pyridin-3-yl)benzo[d] isothiazol-6-amine], the EC50 under setting [1] is 284 nM and the EC50 under setting [2] was found to be 284 nM.

With `O=C(c1nsc2cc(Nc3n[nH]c4cccnc34)ccc12)N1CCC(F)(F)C1` [Example 3, (6-((1H-pyrazolo [4,3-b]pyridin-3-yl)amino)benzo[d]isothiazol-3-yl) (3,3-difluoropyrrolidin-1-yl) methanone], the EC50 stood at 325 nM under setting [1] and 325 nM under setting [2].

For the molecule `O=C(NC1CC(F)(F)C1)c1nsc2cc(Nc3n[nH]c4cccnc34)ccc12` [Example 4, 6-((1H-pyrazolo[4,3-b]pyridin-3-yl)amino)-N-(3,3-difluorocyclobutyl)benzo[d] isothiazole-3-carboxamide], the EC50 is 32 nM under setting [1] and 32 nM under setting [2].

As for `O=C(c1nsc2cc(Nc3n[nH]c4cccnc34)ccc12)N1CCC(F)(F)CC1` [Example 5, (6-((1H-pyrazolo[4,3-b]pyridin-3-yl)amino)benzo[d]isothiazol-3-yl) (4,4-difluoropiperidin-1-yl) methanone], the EC50 turned out to be 60 nM under setting [1] and 60 nM under setting [2].

Take `O=C(c1nsc2cc(Nc3n[nH]c4cccnc34)ccc12)N1CCOCC1` [Example 6, (6-((1H-pyrazolo [4,3-b]pyridin-3-yl)amino)benzo[d]isothiazol-3-yl)(morpholino) methanone]: the EC50 is 303 nM under setting [1] and 303 nM under setting [2].

As for `CC1CN(C(=O)c2nsc3cc(Nc4n[nH]c5cccnc45)ccc23)CC(C)O1` (stereo not drawn) [Example 7, (6-((1H-pyrazolo [4,3-b]pyridin-3-yl)amino)benzo[d]isothiazol-3-yl) (2,6-dimethyl-morpholino) methanone], the EC50 is, setting by setting: under setting [1], 306 nM; under setting [2], 306 nM.

For `O=C(c1nsc2cc(Nc3n[nH]c4cccnc34)ccc12)N1CCS(=O)(=O)CC1` [Example 8, (6-((1H-pyrazolo [4,3-b]pyridin-3-yl)amino)benzo[d]isothiazol-3-yl)(1,1-dioxido-thiomorpholino) methanone], the EC50 by setting is: under setting [1], 136 nM; under setting [2], 136 nM.

As to `O=C(c1nsc2cc(Nc3n[nH]c4cccnc34)ccc12)N1CCCC(F)(F)C1` [Example 9, (6-((1H-pyrazolo [4,3-b]pyridin-3-yl)amino)benzo[d]isothiazol-3-yl) (3,3-difluoropiperidin-1-yl)methanone], the EC50 turned out to be 233 nM under setting [1] and 233 nM under setting [2].

Regarding `O=C(c1nsc2cc(Nc3n[nH]c4cccnc34)ccc12)N1CCCC1` [Example 10, (6-((1H-pyrazolo [4,3-b]pyridin-3-yl)amino)benzo[d]isothiazol-3-yl) (pyrrolidin-1-yl) methanone], the EC50 reads like this: under setting [1], 1340 nM; under setting [2], 1340 nM.

`O=C(c1nsc2cc(Nc3n[nH]c4cccnc34)ccc12)N1CCCC1c1ccccn1` (stereo not drawn) [Example 11, (6-((1H-pyrazolo [4,3-b]pyridin-3-yl)amino)benzo[d]isothiazol-3-yl)(2-(pyridin-2-yl)pyrrolidin-1-yl) methanone]: the EC50 by setting is: under setting [1], greater than 10000 nM; under setting [2], greater than 10000 nM.

Take `CN1CCN(C(=O)c2nsc3cc(Nc4n[nH]c5cccnc45)ccc23)CC1` [Example 12, (6-((1H-pyrazolo [4,3-b]pyridin-3-yl)amino)benzo[d]isothiazol-3-yl)(4-methylpiperazin-1-yl) methanone]: the EC50 under setting [1] came to 1140 nM and the 50% effective concentration (EC50) under setting [2] came to 1140 nM.

Consider `O=C(c1nsc2cc(Nc3n[nH]c4cccnc34)ccc12)N1CCN2CCCC2C1` (stereo not drawn) [Example 13, (6-((1H-pyrazolo [4,3-b]pyridin-3-yl)amino)benzo[d]isothiazol-3-yl)(hexahydropyrrolo [1,2-a]pyrazin-2(1H)-yl)methanone], for which the EC50 runs as follows: under setting [1], 1610 nM; under setting [2], 1610 nM.

For `O=C(c1nsc2cc(Nc3n[nH]c4cccnc34)ccc12)N1CCC(N2CCOCC2)C1` (stereo not drawn) [Example 14, (6-((1H-pyrazolo[4,3-b]pyridin-3-yl)amino)benzo[d]isothiazol-3-yl) (3-morpholinopyrrolidin-1-yl)methanone], the EC50 under setting [1] stood at 3450 nM and the EC50 under setting [2] came out at 3450 nM.

On to `CN(C(=O)c1nsc2cc(Nc3n[nH]c4cccnc34)ccc12)C1CC(F)(F)C1` [Example 15, 6-((1H-pyrazolo[4,3-b]pyridin-3-yl)amino)-N-(3,3-difluorocyclobutyl)-N-methylbenzo[d] isothiazole-3-carboxamide], for which the EC50 under setting [1] was 164 nM and the EC50 under setting [2] turned out to be 164 nM.

Take `O=C(c1nsc2cc(Nc3n[nH]c4cccnc34)ccc12)N1CCSCC1` [Example 16, (6-((1H-pyrazolo [4,3-b]pyridin-3-yl)amino)benzo[d]isothiazol-3-yl)(thiomorpholino) methanone]: the EC50 was 85 nM under setting [1] and 85 nM under setting [2].

For `O=C(c1nsc2cc(Nc3n[nH]c4cccnc34)ccc12)N1CCCOCC1` [Example 17, (6-((1H-pyrazolo[4,3-b]pyridin-3-yl)amino)benzo[d]isothiazol-3-yl)(1,4-oxazepan-4-yl)methanone], the EC50 came out at 607 nM under setting [1] and 607 nM under setting [2].

`CC1CC(C)CN(C(=O)c2nsc3cc(Nc4n[nH]c5cccnc45)ccc23)C1` (stereo not drawn) [Example 18, (6-((1H-pyrazolo [4,3-b]pyridin-3-yl)amino)benzo[d]isothiazol-3-yl)(3,5-dimethylpiperidin-1-yl) methanone]: the EC50 under setting [1] was found to be 517 nM and the EC50 under setting [2] worked out at 517 nM.

Turning to `CC1CCN(C(=O)c2nsc3cc(Nc4n[nH]c5cccnc45)ccc23)CC1` [Example 19, (6-((1H-pyrazolo [4,3-b]pyridin-3-yl)amino)benzo[d]isothiazol-3-yl) (4-methylpiperidin-1-yl)methanone], the concentration for a half-maximal effect (EC50) runs as follows: under setting [1], 408 nM; under setting [2], 408 nM.

Turning to `O=C(c1nsc2cc(Nc3n[nH]c4cccnc34)ccc12)N1CCC(F)CC1` [Example 20, (6-((1H-pyrazolo [4,3-b]pyridin-3-yl)amino)benzo [d]isothiazol-3-yl) (4-fluoropiperidin-1-yl)methanone], the EC50 by setting is: under setting [1], 249 nM; under setting [2], 249 nM.

Take `O=C(c1nsc2cc(Nc3n[nH]c4cccnc34)ccc12)N1CCC(C(F)(F)F)CC1` [Example 21, (6-((1H-pyrazolo [4,3-b]pyridin-3-yl)amino)benzo[d]isothiazol-3-yl) (4-(trifluoromethyl)piperidin-1-yl) methanone]: the EC50 is, setting by setting: under setting [1], 50 nM; under setting [2], 50 nM.

Consider `CC(C)(C)Cc1nsc2cc(Nc3n[nH]c4ncccc34)ccc12` [Example 22, 3-neopentyl-N-(1H-pyrazolo[3,4-b]pyridin-3-yl)benzo[d] isothiazol-6-amine], for which the EC50 is, setting by setting: under setting [1], 884 nM; under setting [2], 884 nM.

Turning to `CCCc1nsc2cc(Nc3n[nH]c4cccnc34)ccc12` [Example 23, 3-propyl-N-(1H-pyrazolo [4,3-b]pyridin-3-yl)benzo[d]isothiazol-6-amine], the EC50 is, setting by setting: under setting [1], 56 nM; under setting [2], 56 nM.

In the case of `CCCc1nsc2cc(Nc3n[nH]c4nccnc34)ccc12` [Example 24, 3-propyl-N-(1H-pyrazolo[3,4-b]pyrazine-3-yl)benzo[d]isothiazol-6-amine], the EC50 under setting [1] is 23.4 nM and the EC50 under setting [2] amounted to 23.4 nM.

Consider `CC(C)(C)c1nsc2cc(Nc3n[nH]c4cccnc34)ccc12` [Example 25, 3-(tert-butyl)-N-(1H-pyrazolo[4,3-b]pyridin-3-yl)benzo[d]isothiazol-6-amine], for which the EC50 under setting [2] came out at 329 nM.

On to `CCCc1nsc2cc(Nc3n[nH]c4ncccc34)ccc12` [Example 26, 3-propyl-N-(1H-pyrazolo[3,4-b]pyridin-3-yl)benzo[d]isothiazol-6-amine], for which the EC50 came to 220 nM under setting [1] and 220 nM under setting [2].
